For this assay, the species on record is Rattus norvegicus. Kind of assay: Binding of [3H]diprenorphine to rat brain membranes was evaluated and the dissociation constant (KD) was determined. On the set-up: species or system Membrane.

Structures are written as SMILES.

`C=CCN1CC[C@]23c4c5ccc(O)c4O[C@H]2C(=O)CC[C@@]3(O)[C@H]1C5` [NALOXONE] gave a Kd of 0.01 µM. This lies in the double-digit nanomolar range.

The values are drawn from ChEMBL document CHEMBL1124775 (J Med Chem, 1990).
